Experimental data from patent publication US11267800B2, “Cyclohexyl acid triazole azines as LPA antagonists” (BRISTOL-MYERS SQUIBB COMPANY, priority 2017, dated 2022).
Counter-ions that a name gives are not always drawn.

Molecular target: T1, human LPA1 (Homo sapiens, UniProt Q92633)
T1 construct: expressed in transfected cells; host or cells: Chinese hamster ovary (CHO) cells
Assay: LPA1 functional antagonist assay (calcium flux)
Format: cell-based
Settings: CHO cells overexpressing human LPA1; inhibition of calcium flux induced by 10 nM LPA; read-out: hLPA1 IC50
Method in brief: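 Dye-loaded CHO cells overexpressing human LPA1 (30 min, 37 °C) were preincubated 20 min at room temperature with compound (0.08 nM–5 μM; 0.5% DMSO; HBSS, 20 mM HEPES, 0.1% fatty-acid-free BSA), then stimulated with 10 nM LPA. IC50 is the concentration inhibiting 50% of LPA-induced calcium flux, from a 4-parameter logistic fit.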

T1 sequence (Q92633 whole entry): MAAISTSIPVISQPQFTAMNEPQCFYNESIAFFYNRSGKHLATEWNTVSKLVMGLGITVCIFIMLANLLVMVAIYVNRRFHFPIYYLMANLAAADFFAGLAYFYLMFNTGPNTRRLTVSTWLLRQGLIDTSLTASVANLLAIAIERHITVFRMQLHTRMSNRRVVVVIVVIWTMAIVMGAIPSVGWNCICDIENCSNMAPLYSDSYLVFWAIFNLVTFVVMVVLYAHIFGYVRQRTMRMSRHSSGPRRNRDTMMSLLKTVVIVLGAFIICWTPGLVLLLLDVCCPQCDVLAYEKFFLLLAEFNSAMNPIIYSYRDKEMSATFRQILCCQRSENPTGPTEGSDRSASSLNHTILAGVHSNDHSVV

Compound | IC50
Cc1nc(-c2nnn(C)c2CNc2nccc(OCC(C)C)n2)ccc1O[C@H]1CCC[C@H](C(=O)O)C1 [Example 93] | 0.023 µM
Cc1nc(-c2nnn(C)c2CNc2nccc(OCC3(C)COC3)n2)ccc1O[C@H]1CCC[C@H](C(=O)O)C1 [Example 74] | 0.13 µM
Cc1nc(-c2nnn(C)c2CNc2nccc(C3(C)CC3)n2)ccc1O[C@H]1CCC[C@H](C(=O)O)C1 [Example 151] | 0.04 µM
Cc1nc(-c2nnn(C)c2CNc2nccc(C(C)C)n2)ccc1O[C@H]1CCC[C@H](C(=O)O)C1 [Example 8] | 0.01 µM
Cc1nc(-c2nnn(C)c2CNc2nccc(C3CC(F)C3)n2)ccc1O[C@H]1CCC[C@H](C(=O)O)C1 (some centres unmarked) [Example 156] | 0.032 µM
Cc1cc(-c2ccccc2C#N)nc(NCc2c(-c3ccc(O[C@H]4CCC[C@H](C(=O)O)C4)c(C)n3)nnn2C)n1 [Example 145] | 0.058 µM
Cc1nc(-c2nnn(C)c2CNc2ccnc(OCC(F)F)n2)ccc1O[C@H]1CCC[C@H](C(=O)O)C1 [Example 73] | 0.133 µM
Cc1nc(-c2nnn(C)c2CNc2nccc(-c3ccccc3)n2)ccc1O[C@H]1CCC[C@H](C(=O)O)C1 [Example 39] | 0.041 µM
COc1cc(C2CCC2)nc(NCc2c(-c3ccc(O[C@H]4CCC[C@H](C(=O)O)C4)c(C)n3)nnn2C)n1 [Example 170] | 0.016 µM
Cc1nc(-c2nnn(C)c2CNc2nccc(C(C)(C)O)n2)ccc1O[C@H]1CCC[C@H](C(=O)O)C1 [Example 153] | 0.704 µM
Cc1nc(-c2nnn(C)c2CNc2nccc(C3CC3)n2)ccc1O[C@H]1CCC[C@H](C(=O)O)C1 [Example 9] | 0.036 µM
Cc1nc(-c2nnn(C)c2CNc2nc(C(N)=O)cc(C3CCC3)n2)ccc1O[C@H]1CCC[C@H](C(=O)O)C1 [Example 165] | 0.243 µM
Cc1nc(-c2nnn(C)c2CNc2ncccc2OC(F)(F)F)ccc1O[C@H]1CCC[C@H](C(=O)O)C1 [Example 119] | 0.793 µM
Cc1nc(-c2nnn(C)c2CNc2ncc(F)c(NCCc3ccc(Cl)cc3)n2)ccc1O[C@H]1CCC[C@H](C(=O)O)C1 [Example 76] | 0.044 µM
Cc1nc(-c2nnn(C)c2CNc2nccc(-n3ccccc3=O)n2)ccc1O[C@H]1CCC[C@H](C(=O)O)C1 [Example 111] | 0.763 µM
CCCCNc1nc(NCc2c(-c3ccc(O[C@H]4CCC[C@H](C(=O)O)C4)c(C)n3)nnn2C)ncc1F [Example 49] | 0.069 µM
CCCOc1nc(NCc2c(-c3ccc(O[C@H]4CCC[C@H](C(=O)O)C4)c(C)n3)nnn2C)nc(OC)n1 [Example 177] | 0.25 µM
Cc1nc(-c2nnn(C)c2CNc2nccc(C3CCCC3)n2)ccc1O[C@H]1CCC[C@H](C(=O)O)C1 [Example 66] | 0.012 µM
Cc1cnc(NCc2c(-c3ccc(O[C@H]4CCC[C@H](C(=O)O)C4)c(C)n3)nnn2C)nc1-c1ccccc1 [Example 19] | 0.008 µM
Cc1nc(-c2nnn(C)c2CNc2nccc(OCC(C)F)n2)ccc1O[C@H]1CCC[C@H](C(=O)O)C1 (some centres unmarked) [Example 69] | 0.054 µM
Cc1nc(-c2nnn(C)c2CNc2nccc(Oc3ccccn3)n2)ccc1O[C@H]1CCC[C@H](C(=O)O)C1 [Example 113] | 0.191 µM
COCCCOc1ccnc(NCc2c(-c3ccc(O[C@H]4CCC[C@H](C(=O)O)C4)c(C)n3)nnn2C)n1 [Example 89] | 0.077 µM
Cc1nc(-c2nnn(C)c2CNc2ncnc(-c3ccccc3)n2)ccc1O[C@H]1CCC[C@H](C(=O)O)C1 [Example 3, (1S,3S)-3-((2-Methyl-6-(1-methyl-5-(((4-phenyl-1,3,5-triazin-2-yl)amino)methyl)-1H-1,2,3-triazol-4-yl)pyridin-3-yl)oxy)cyclohexanecarboxylic acid] | 0.12 µM

Results, then the compound that gave them:

IC50 | Compound
0.39 µM | Cc1nc(-c2nnn(C)c2COc2ncnc(OC3CC3)c2C)ccc1O[C@H]1CCC[C@H](C(=O)O)C1 [Example 292]
0.308 µM | Cc1nc(-c2nnn(C)c2COc2cc(C(F)(F)F)cc(C#N)n2)ccc1O[C@H]1CCC[C@H](C(=O)O)C1 [Example 288]
0.159 µM | CCc1cc(NCc2c(-c3ccc(O[C@H]4CCC[C@H](C(=O)O)C4)c(C)n3)nnn2C)ncn1 [Example 318]
0.138 µM | Cc1nc(NCc2c(-c3ccc(O[C@H]4CCC[C@H](C(=O)O)C4)c(C)n3)nnn2C)nc(C2CC2)n1 [Example 188, (1S,3S)-3-((6-(5-(((4-Cyclopropyl-6-methyl-1,3,5-triazin-2-yl)amino)methyl)-1-methyl-1H-1,2,3-triazol-4-yl)-2-methylpyridin-3-yl)oxy)cyclohexane-1-carboxylic acid, bis TFA Salt]
0.122 µM | Cn1nnc(-c2ccc(O[C@H]3CCC[C@H](C(=O)O)C3)cn2)c1Nc1nccc(OCC2CC2)n1 [Example 243, (1S,3S)-3-((6-(5-((4-(cyclopropyl-methoxy)pyrimidin-2-yl)amino)-1-methyl-1H-1,2,3-triazol-4-yl)pyridin-3-yl)oxy)cyclohexane-1-carboxylic acid]
0.036 µM | CCc1nccc(OCc2c(-c3ccc(O[C@H]4CCC[C@H](C(=O)O)C4)c(C)n3)nnn2C)n1 [Example 306]
0.037 µM | Cc1nc(-c2nnn(C)c2COc2ccnc(C3CC3)n2)ccc1O[C@H]1CCC[C@H](C(=O)O)C1 [Example 282]
0.523 µM | Cc1nc(-c2nnn(C)c2COc2cc(OCCOC(C)C)ncn2)ccc1O[C@H]1CCC[C@H](C(=O)O)C1 [Example 361]
0.09 µM | Cc1nc(-c2nnn(C)c2COc2nccc(COC(C)C)n2)ccc1O[C@H]1CCC[C@H](C(=O)O)C1 [Example 320]
0.011 µM | Cc1nc(-c2nnn(C)c2COc2nccc(C(F)(F)F)n2)ccc1O[C@H]1CCC[C@H](C(=O)O)C1 [Example 305]
0.0095 µM | Cc1nc(-c2nnn(C)c2COc2nccc(C(C)C)n2)ccc1O[C@H]1CCC[C@H](C(=O)O)C1 [Example 345]
0.077 µM | COc1ccnc(OCc2c(-c3ccc(O[C@H]4CCC[C@H](C(=O)O)C4)c(C)n3)nnn2C)n1 [Example 346]
1.59 µM | Cc1nc(-c2nnn(C)c2CCNc2nccc(C(C)C)n2)ccc1O[C@H]1CCC[C@H](C(=O)O)C1 [Example 401]
0.0053 µM | CCOc1ccnc(OCc2c(-c3ccc(O[C@H]4CCC[C@H](C(=O)O)C4)c(C)n3)nnn2C)c1 [Example 270]
0.051 µM | CCOc1cccc(OCc2c(-c3ccc(O[C@H]4CCC[C@H](C(=O)O)C4)c(C)n3)nnn2C)c1 [Example 268]
0.054 µM | Cc1nc(-c2nnn(C)c2CNc2ncnc(C3CCC3)n2)ccc1O[C@H]1CCC[C@H](C(=O)O)C1 [Example 183]
0.135 µM | Cc1nc(-c2nnn(C)c2CNc2nccc(C(F)F)n2)ccc1O[C@H]1CCC[C@H](C(=O)O)C1 [Example 366]

IC50 | Compound
0.024 µM | Cc1nc(-c2nnn(C)c2COc2cc(C(C)C)ncn2)ccc1O[C@H]1CCC[C@H](C(=O)O)C1 [Example 277]
0.117 µM | Cc1nc(-c2nnn(C)c2CNc2cc(C(F)F)ncn2)ccc1O[C@H]1CCC[C@H](C(=O)O)C1 [Example 365]
0.215 µM | Cc1nc(-c2nnn(C)c2Nc2ccnc(OC3CC3)n2)ccc1O[C@H]1CCC[C@H](C(=O)O)C1 [Example 228, (1S,3S)-3-((6-(5-((2-cyclopropoxypyrimidin-4-yl)amino)-1-methyl-1H-1,2,3-triazol-4-yl)-2-methylpyridin-3-yl)oxy)cyclohexane-1-carboxylic acid]
0.0059 µM | Cc1nc(-c2nnn(C)c2COc2cccc(C(C)C)c2)ccc1O[C@H]1CCC[C@H](C(=O)O)C1 [Example 254, (1S,3S)-3-((6-(5-((3-isopropylphenoxy)methyl)-1-methyl-1H-1,2,3-triazol-4-yl)-2-methylpyridin-3-yl)oxy)cyclohexane-1-carboxylic acid]
0.028 µM | Cn1nnc(-c2ccc(O[C@H]3CCC[C@H](C(=O)O)C3)cn2)c1CNc1nccc(OCC2(C)CC2)n1 [Example 336]
0.168 µM | Cc1nc(-c2nnn(C)c2COc2cc(C(F)(F)F)nc(N3CCCC3)n2)ccc1O[C@H]1CCC[C@H](C(=O)O)C1 [Example 354]
0.04 µM | Cc1nc(-c2nnn(C)c2CNc2ncnc(CCC(C)C)n2)ccc1O[C@H]1CCC[C@H](C(=O)O)C1 [Example 205, (1S,3S)-3-((6-(5-(((4-Isopentyl-1,3,5-triazin-2-yl)amino)methyl)-1-methyl-1H-1,2,3-triazol-4-yl)-2-methyl-pyridin-3-yl)oxy)cyclohexane-1-carboxylic acid]
0.018 µM | CC(C)c1ccnc(NCc2c(-c3ccc(O[C@H]4CCC[C@H](C(=O)O)C4)c(C#N)n3)nnn2C)n1 [Example 406]
0.045 µM | Cc1nc(-c2nnn(C)c2CN(C)c2nccc(OCC(C)F)n2)ccc1O[C@H]1CCC[C@H](C(=O)O)C1 (some centres unmarked) [Example 269]
0.044 µM | Cc1nc(-c2nnn(C)c2CNc2ncc(F)c(NCCOc3ccc(F)cc3)n2)ccc1O[C@H]1CCC[C@H](C(=O)O)C1 [Example 265]
0.048 µM | CCOc1ccnc(NCc2c(-c3nc(C)c(O[C@H]4CCC[C@H](C(=O)O)C4)cc3F)nnn2C)n1 [Example 384]
3.24 µM | COc1cncc(OCc2c(-c3ccc(O[C@H]4CCC[C@H](C(=O)O)C4)c(C)n3)nnn2C)c1 [Example 309]
0.017 µM | Cc1nc(-c2nnn(C)c2COc2nccc(C(F)F)n2)ccc1O[C@H]1CCC[C@H](C(=O)O)C1 [Example 310]
0.03 µM | Cc1nc(-c2nnn(C)c2COc2cc(OC(C)C)ncn2)ccc1O[C@H]1CCC[C@H](C(=O)O)C1 [Example 290]
0.105 µM | COc1nc(NCc2c(-c3ccc(O[C@H]4CCC[C@H](C(=O)O)C4)c(C)n3)nnn2C)nc(C2CC2)n1 [Example 201, (1S,3S)-3-((6-(5-(((4-Cyclopropyl-6-methoxy-1,3,5-triazin-2-yl)amino)methyl)-1-methyl-1H-1,2,3-triazol-4-yl)-2-methylpyridin-3-yl)oxy)cyclohexane-1-carboxylic acid, bis TFA Salt]
0.0079 µM | CCc1ccnc(OCc2c(-c3ccc(O[C@H]4CCC[C@H](C(=O)O)C4)c(C)n3)nnn2C)n1 [Example 301]
